Test results reported in PubChem BioAssay AID248 (DTP/NCI, 2004).
Where “and” joins values, the source holds several entries; their conditions need not be identical. Equal values may be shown once. Inconclusive results and toxic doses are left out.

Tested on: L1210 leukemia ip in BDF1 mice, survival T/C
Assay: NCI In Vivo Anticancer Drug Screen. Data for tumor model L1210 Leukemia (intraperitoneal) in B6D2F1 (BDF1) mice
Conditions: endpoint: mean survival time, higher = longer survival
Procedure, shortened: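 Each compound was tested against a transplantable tumor grown in mice. The endpoint was survival, with treated animals benchmarked against vehicle controls as a simple ratio.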

[1] = dose: 200.0 mg/kg/injection, schedule: Q01DX001 (ip), vehicle: saline
[2] = dose: 400.0 mg/kg/injection, schedule: Q01DX001 (ip), vehicle: saline
[3] = dose: 100.0 mg/kg/injection, schedule: Q04DX003 (ip), vehicle: saline with Tween-80
[4] = dose: 200.0 mg/kg/injection, schedule: Q04DX003 (ip), vehicle: saline with Tween-80
[5] = dose: 100.0 mg/kg/injection, schedule: Q04DX003 (ip), vehicle: Klucel (hydroxypropylcellulose) (HPC)
[6] = dose: 200.0 mg/kg/injection, schedule: Q04DX003 (ip), vehicle: Klucel (hydroxypropylcellulose) (HPC)
[7] = dose: 50.0 mg/kg/injection, schedule: Q01DX009 (ip), vehicle: Klucel (hydroxypropylcellulose) (HPC)
[8] = dose: 100.0 mg/kg/injection, schedule: Q01DX009 (ip), vehicle: Klucel (hydroxypropylcellulose) (HPC)
[9] = dose: 200.0 mg/kg/injection, schedule: Q01DX009 (ip), vehicle: Klucel (hydroxypropylcellulose) (HPC)
[10] = dose: 100.0 mg/kg/injection, schedule: Q01DX001 (ip), vehicle: saline
[11] = dose: 400.0 mg/kg/injection, schedule: Q01DX009 (ip), vehicle: Klucel (hydroxypropylcellulose) (HPC)

For `COc1cc(C(C)S(=O)(=O)c2ccc(C)cc2)ccc1O` (stereo not given), the T/C (dose: 100.0 mg/kg/injection, schedule: Q01DX001 (ip), vehicle: carboxymethylcellulose (CMC)) was 89 % of control, the T/C (dose: 200.0 mg/kg/injection, schedule: Q01DX001 (ip), vehicle: carboxymethylcellulose (CMC)) was 93 % of control and the T/C (dose: 400.0 mg/kg/injection, schedule: Q01DX001 (ip), vehicle: carboxymethylcellulose (CMC)) was 93 % of control.
In the case of `CCOc1cc(OCC)c(C=O)c(OCC)c1`, the T/C (dose: 100.0 mg/kg/injection, schedule: Q01DX009 (ip), vehicle: other) is reported as 96 % of control, the T/C [1] is reported as 88 % of control and the T/C (dose: 200.0 mg/kg/injection, schedule: Q01DX009 (ip), vehicle: other) is reported as 94 % of control. For the same compound, the T/C [2] was 102 % of control and the T/C (dose: 400.0 mg/kg/injection, schedule: Q01DX009 (ip), vehicle: other) was 97 % of control.
`Nc1n[nH]c(N)n1.[Ni]` was tested, and the T/C (dose: 100.0 mg/kg/injection, schedule: Q01DX009 (ip), vehicle: saline with Tween-80) was 101 % of control, the T/C [3] was 113 % of control and the T/C (dose: 200.0 mg/kg/injection, schedule: Q01DX009 (ip), vehicle: saline with Tween-80) was 111 % of control. For the same compound, the T/C [4] was 103 % of control, the T/C (dose: 400.0 mg/kg/injection, schedule: Q01DX009 (ip), vehicle: saline with Tween-80) was 104 % of control and the T/C (dose: 400.0 mg/kg/injection, schedule: Q04DX003 (ip), vehicle: saline with Tween-80) was 98 % of control.
With `C(=C1\CC(c2ccccc2)(c2ccccc2)N=N1)/c1ccccc1` the T/C [5] was 91 % of control, the T/C [6] was 114 % of control and the T/C (dose: 400.0 mg/kg/injection, schedule: Q04DX003 (ip), vehicle: Klucel (hydroxypropylcellulose) (HPC)) was 101 % of control.
`CCOC(=O)c1ccc(OC(=O)Nc2ccc(Cl)c([N+](=O)[O-])c2)cc1` was tested, and the T/C [7] was 94 % of control, the T/C [8] was 90 % of control and the T/C [5] was 100 % of control. The T/C [9] was 92 % of control and the T/C [6] was 94 % of control.
With `Cc1ccccc1SCCC(=O)O` the T/C [10] was 100 % of control, the T/C [8] was 92 % of control and the T/C [1] was 87 % of control. The T/C [9] was 96 % of control, the T/C [2] was 87 % of control and the T/C [11] was 94 % of control.
`O=S(=O)(c1ccccc1)C(Br)c1ccccc1` (stereo not given) was tested, and the T/C (dose: 100.0 mg/kg/injection, schedule: Q04DX002 (ip), vehicle: Klucel (hydroxypropylcellulose) (HPC)) was 101 % of control, the T/C (dose: 200.0 mg/kg/injection, schedule: Q04DX002 (ip), vehicle: Klucel (hydroxypropylcellulose) (HPC)) was 105 % of control and the T/C (dose: 400.0 mg/kg/injection, schedule: Q04DX002 (ip), vehicle: Klucel (hydroxypropylcellulose) (HPC)) was 97 % of control.
In the case of `Clc1ccc(/C=C/c2ccc(Cl)cc2)cc1`, the T/C (dose: 75.0 mg/kg/injection, schedule: Q04DX003 (ip), vehicle: Klucel (hydroxypropylcellulose) (HPC)) is reported as 95 % of control, the T/C (dose: 150.0 mg/kg/injection, schedule: Q04DX003 (ip), vehicle: Klucel (hydroxypropylcellulose) (HPC)) is reported as 95 % of control and the T/C (dose: 300.0 mg/kg/injection, schedule: Q04DX003 (ip), vehicle: Klucel (hydroxypropylcellulose) (HPC)) is reported as 98 % of control.
With `COC(=O)c1cc(C)c(I)c([N+](=O)[O-])c1` the T/C [8] was 109 % of control, the T/C [9] was 102 % of control and the T/C [11] was 98 % of control.
For `CO[C@H]1C[C@H](O[C@H]2CC[C@]3(C=O)[C@H]4CC[C@]5(C)[C@@H](C6=CC(=O)OC6)CC[C@]5(O)[C@@H]4CC[C@]3(O)C2)O[C@H](C)[C@H]1O[C@@H]1O[C@H](CO[C@@H]2O[C@H](CO)[C@@H](O)[C@H](O)[C@H]2O)[C@@H](O)[C@H](O)[C@H]1O`, the T/C (dose: 0.25 mg/kg/injection, schedule: Q01DX001 (sc), vehicle: steriod suspending solution) was 98 % of control, the T/C (dose: 0.5 mg/kg/injection, schedule: Q01DX001 (sc), vehicle: steriod suspending solution) was 96 % of control and the T/C (dose: 1.0 mg/kg/injection, schedule: Q01DX001 (sc), vehicle: steriod suspending solution) was 98 % of control. For the same compound, the T/C (dose: 2.0 mg/kg/injection, schedule: Q01DX001 (sc), vehicle: steriod suspending solution) was 98 % of control.
`CCC#CC(O)(C(=O)OCC)C1CCCC1` (stereo not given) was tested, and the T/C [10] was 105 % of control, the T/C [1] was 105 % of control and the T/C [2] was 111 % of control.
In the case of `CN=C(N)c1ccc(N=C(N)c2ccc(N=C(N)c3ccc(NC(=O)Nc4cccc(NC(=O)Nc5ccc(C(N)=Nc6ccc(C(N)=Nc7ccc(C(N)=NC)cc7)cc6)cc5)c4)cc3)cc2)cc1`, the T/C (dose: 0.25 mg/kg/injection, schedule: Q01DX015 (ip), vehicle: water) is reported as 109 % of control, the T/C (dose: 0.5 mg/kg/injection, schedule: Q01DX015 (ip), vehicle: water) is reported as 113 % of control and the T/C (dose: 1.0 mg/kg/injection, schedule: Q01DX015 (ip), vehicle: water) is reported as 121 % of control. The T/C (dose: 2.0 mg/kg/injection, schedule: Q01DX015 (ip), vehicle: water) was 124 % of control, the T/C (dose: 37.5 mg/kg/injection, schedule: Q01DX001 (ip), vehicle: water) was 177 % of control and 178 % of control and 187 % of control and the T/C (dose: 75.0 mg/kg/injection, schedule: Q01DX001 (ip), vehicle: water) was 265 % of control and 278 % of control and 310 % of control.
With `O=COC1CC2CC1C1CCCC21` (stereo not given) the T/C [3] was 94 % of control and the T/C [4] was 92 % of control.
In the case of `O=C(O)c1cscc1-c1cccc2ccccc12`, the T/C [3] is reported as 91 % of control and the T/C [4] is reported as 98 % of control.
In the case of `Nc1nc(SN=Nc2ccc([As](=O)(O)O)cc2)c2[nH]cnc2n1`, the T/C (dose: 0.5 mg/kg/injection, schedule: Q01DX Z (ip), vehicle: other) is reported as 110 % of control, the T/C (dose: 0.7 mg/kg/injection, schedule: Q01DX Z (ip), vehicle: other) is reported as 114 % of control and the T/C (dose: 1.25 mg/kg/injection, schedule: Q01DX015 (ip), vehicle: carboxymethylcellulose (CMC)) is reported as 106 % of control. The T/C (dose: 1.3 mg/kg/injection, schedule: Q01DX Z (ip), vehicle: other) was 107 % of control, the T/C (dose: 2.5 mg/kg/injection, schedule: Q01DX015 (ip), vehicle: carboxymethylcellulose (CMC)) was 115 % of control and the T/C (dose: 10.0 mg/kg/injection, schedule: Q01DX015 (ip), vehicle: carboxymethylcellulose (CMC)) was 159 % of control. The T/C (dose: 11.0 mg/kg/injection, schedule: Q01DX Z (ip), vehicle: other) was 151 % of control and 154 % of control, the T/C (dose: 25.0 mg/kg/injection, schedule: Q## X001 (ip), vehicle: carboxymethylcellulose (CMC)) was 113 % of control and the T/C (dose: 50.0 mg/kg/injection, schedule: Q## X001 (ip), vehicle: carboxymethylcellulose (CMC)) was 123 % of control. The T/C (dose: 56.0 mg/kg/injection, schedule: Q01DX Z (ip), vehicle: other) was 106 % of control.
`CN(C)CCCN1c2ccccc2CCc2ccccc21` was tested, and the T/C (dose: 3.12 mg/kg/injection, schedule: Q01DX009 (ip), vehicle: saline) was 96 % of control, the T/C (dose: 6.25 mg/kg/injection, schedule: Q01DX009 (ip), vehicle: saline) was 101 % of control and the T/C (dose: 12.5 mg/kg/injection, schedule: Q01DX009 (ip), vehicle: saline) was 93 % of control. For the same compound, the T/C (dose: 25.0 mg/kg/injection, schedule: Q01DX009 (ip), vehicle: saline) was 104 % of control, the T/C (dose: 25.0 mg/kg/injection, schedule: Q04DX003 (ip), vehicle: saline) was 100 % of control and the T/C (dose: 50.0 mg/kg/injection, schedule: Q01DX009 (ip), vehicle: saline) was 101 % of control. For the same compound, the T/C (dose: 50.0 mg/kg/injection, schedule: Q04DX003 (ip), vehicle: saline) was 93 % of control, the T/C [10] was 94 % of control and the T/C [1] was 90 % of control.
In the case of `CCCCCCCCCCCCCCCCn1cnc2c(=S)nc[nH]c21`, the T/C (dose: 12.5 mg/kg/injection, schedule: Q01DX005 (ip), vehicle: other) is reported as 102 % of control, the T/C (dose: 25.0 mg/kg/injection, schedule: Q01DX005 (ip), vehicle: other) is reported as 96 % of control and the T/C (dose: 50.0 mg/kg/injection, schedule: Q01DX005 (ip), vehicle: other) is reported as 104 % of control. For the same compound, the T/C (dose: 100.0 mg/kg/injection, schedule: Q01DX005 (ip), vehicle: other) was 104 % of control and the T/C (dose: 200.0 mg/kg/injection, schedule: Q01DX005 (ip), vehicle: other) was 96 % of control.
In the case of `CC(=O)c1cccc(NC(=O)Oc2ccc(F)cc2Cl)c1`, the T/C [8] is reported as 97 % of control and the T/C [9] is reported as 108 % of control.
For `COC1/C=C/OC2(C)Oc3c(C)c(O)c4c(O)c(c(/C=N/N5CCN(Cc6ccccc6)CC5)c(O)c4c3C2=O)NC(=O)C(C)=C/C=C/C(C)C(O)C(C)C(O)C(C)C(OC(C)=O)C1C` (stereo not given), the T/C (dose: 3.13 mg/kg/injection, schedule: Q01DX009 (ip), vehicle: Klucel (hydroxypropylcellulose) (HPC)) was 91 % of control, the T/C (dose: 6.25 mg/kg/injection, schedule: Q01DX009 (ip), vehicle: Klucel (hydroxypropylcellulose) (HPC)) was 100 % of control and the T/C (dose: 12.5 mg/kg/injection, schedule: Q01DX009 (ip), vehicle: Klucel (hydroxypropylcellulose) (HPC)) was 91 % of control. For the same compound, the T/C (dose: 25.0 mg/kg/injection, schedule: Q01DX009 (ip), vehicle: Klucel (hydroxypropylcellulose) (HPC)) was 97 % of control and the T/C [7] was 95 % of control and 110 % of control.
